Data set [1] deals with Smn protein in SMA patient fibroblast cells (GM03813). Kind of data set: Smn protein assay in cultured cells (SMN HTRF). It is filed as cell-based, human. The settings on record: SMA patient fibroblast cells, 48 hours; for maximum fold (Fold) increase of Smn protein: 7-point concentration data, fold relative to vehicle control; for EC1.5x for Smn protein expression: 7-point concentration curve, SMN HTRF, concentration producing 1.5 times Smn protein vs DMSO vehicle control. A digest of the protocol: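 Patient-derived SMA fibroblasts are plated, given compound for 48 h, then lysed in RIPA buffer with protease inhibitors. Lysate Smn is detected by an anti-SMN d2/kryptate HTRF pair incubated overnight. The normalized ΔF is divided by the vehicle ΔF to give fold change, from which EC1.5× and maximum fold are taken.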
(In general: In TR-FRET formats the signal depends on donor and acceptor labels being close together.)

For data set [2], the system named is SMN2 minigene mRNA (SMN2-A minigene) in HEK293H cells. Kind of data set: SMN2 minigene mRNA splicing RT-qPCR assay in cultured cells. It is filed as cell-based, human. The settings on record: Homo sapiens, HEK293-H; concentration increasing full length SMN2 mRNA 1.5-fold relative to vehicle-treated cells; HEK293H cells with SMN2-A minigene, 24 hours, 7-point concentration data; read-out: EC1.5x for production of full length SMN2 mRNA. In outline: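 Cells are seeded, left to attach 4-6 h, then dosed with test compound across seven concentrations and incubated 24 h. Lysates undergo RT-qPCR with primers/probe specific to the exon 7-containing minigene transcript, co-amplified with GAPDH. Fold change over vehicle is calculated, and EC1.5× marks the 1.5-fold point.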

Experimental findings from patent publication US11753407B2, “Compounds for treating spinal muscular atrophy” (PTC Therapeutics, Inc., priority 2012, dated 2023) are described below.

The melting point is the temperature of the solid-liquid transition. `Cc1cn2nc(-c3cc(=O)n4cc(N5C[C@@H](C)N[C@@H](C)C5)cc(C)c4n3)cc2c(C)n1` [Compound 562, 7-[(3R,5S)-3,5-dimethylpiperazin-1-yl]-2-(4,6-dimethylpyrazolo[1,5-a]pyrazin-2-yl)-9-methyl-4H-pyrido[1,2-a]pyrimidin-4-one] returned a melting point of 273 to 283 °C. Moreover, the “maximum fold (Fold) increase of Smn protein” value (from here on “maximum fold (Fold) increase”) in data set [1] is “** (a fold increase between >1.2 and ≤1.35 is indicated by two stars (**))”. For the same molecule, in data set [2], the EC (1.5-fold increase) was in the range of 0.3 to 1 µM.
Consider `Cc1cn2nc(-c3cc(=O)n4cc(N5CCNCC5)ccc4n3)cc2cn1` [Compound 420, 2-(6-methylpyrazolo[1,5-a]pyrazin-2-yl)-7-(piperazin-1-yl)-4H-pyrido[1,2-a]pyrimidin-4-one], for which the melting point is 202 to 204 °C. In data set [1], the “EC1.5x for Smn protein expression” value is reported as “**** (an EC1.5x≤0.3 μM is indicated by four stars (****))”; the “maximum fold (Fold) increase” value is “**** (a fold increase between >1.5 and ≤1.65 is indicated by four stars (****))”. Further, the EC (1.5-fold increase) in data set [2] was < 0.1 µM.
`COc1ccc(-c2cc(=O)n3cc(N4C[C@H](O)[C@@H](N5CCCC5)C4)ccc3n2)cc1F` [Compound 232, 2-(3-fluoro-4-methoxyphenyl)-7-[(3′S,4′S)-4′-hydroxy-1,3′-bipyrrolidin-1′-yl]-4H-pyrido[1,2-a]pyrimidin-4-one] gave a melting point of 226 to 232 °C. For the same molecule, in data set [1], the “maximum fold (Fold) increase” value is “* (A maximum fold increase of ≤1.2 is indicated by one star (*))”. In addition, the EC (1.5-fold increase) in data set [2] fell in the range of 1 to 3 µM.
`Cc1cn2nc(-c3cc(=O)n4cc(C5=CCNCC5)ccc4n3)cc2c(C)n1` [Cpd 342, 2-(4,6-dimethylpyrazolo[1,5-a]pyrazin-2-yl)-7-(1,2,3,6-tetrahydropyridin-4-yl)-4H-pyrido[1,2-a]pyrimidin-4-one] came in with a melting point of 207 to 210 °C. Moreover, in data set [1], the “EC1.5x for Smn protein expression” value was “**** (an EC1.5x≤0.3 μM is indicated by four stars (****))” and the “maximum fold (Fold) increase” value is “***** (a fold increase >1.65 is indicated by five stars (*****))”. Further, the EC (1.5-fold increase) in data set [2] was < 0.1 µM.
Turning to `COc1ccc(-c2cc(=O)n3cc(N4CCC(N(C)CCO)CC4)cc(C)c3n2)cc1OC` [Compound 446, 2-(3,4-dimethoxyphenyl)-7-{4-[(2-hydroxyethyl)(methyl)amino]piperidin-1-yl}-9-methyl-4H-pyrido[1,2-a]pyrimidin-4-one], the melting point is 164 to 171 °C. Besides, in data set [1], the “EC1.5x for Smn protein expression” value is “** (an EC1.5× between >1 μM and ≤3 μM is indicated by two stars (**))”; the “maximum fold (Fold) increase” value was “*** (a fold increase between >1.35 and ≤1.5 is indicated by three stars (***))”. The EC (1.5-fold increase) in data set [2] was < 0.1 µM.
Turning to `CCCN1CCC(c2ccc3nc(-c4cc5c(C)nc(C)cn5n4)cc(=O)n3c2)CC1` [Compound 687, 2-(4,6-dimethylpyrazolo[1,5-a]pyrazin-2-yl)-7-(1-propylpiperidin-4-yl)-4H-pyrido[1,2-a]pyrimidin-4-one], the melting point lay within 185 to 187 °C. In data set [1], the “EC1.5x for Smn protein expression” value is “**** (an EC1.5x≤0.3 μM is indicated by four stars (****))”; the “maximum fold (Fold) increase” value is “**** (a fold increase between >1.5 and ≤1.65 is indicated by four stars (****))”. Further, the EC (1.5-fold increase) in data set [2] is < 0.1 µM.
`Cc1cn2cc(-c3cc(=O)n4cc(N5CCN(C(C)C)[C@@H](C)C5)ccc4n3)cc(F)c2n1` [Compound 541, 2-(8-fluoro-2-methylimidazo[1,2-a]pyridin-6-yl)-7-[(3S)-3-methyl-4-(propan-2-yl)piperazin-1-yl]-4H-pyrido[1,2-a]pyrimidin-4-one] had a melting point of 191 to 194 °C. In data set [1], the “EC1.5x for Smn protein expression” value was “*** (an EC1.5× between >0.3 μM and ≤1 μM is indicated by three stars (***))”; the “maximum fold (Fold) increase” value is “***** (a fold increase >1.65 is indicated by five stars (*****))”. Further, the EC (1.5-fold increase) in data set [2] is 0.1 to 0.3 µM.
With `COc1ccc(-c2cc(=O)n3cc(C4=CCN(C5CCC5)CC4)cc(C)c3n2)cc1OC` [Compound 379, 7-(1-cyclobutyl-1,2,3,6-tetrahydropyridin-4-yl)-2-(3,4-dimethoxyphenyl)-9-methyl-4H-pyrido[1,2-a]pyrimidin-4-one], the melting point lay in the range of 167 to 178 °C. Also, the “maximum fold (Fold) increase” value in data set [1] is “*** (a fold increase between >1.35 and ≤1.5 is indicated by three stars (***))”. In addition, the EC (1.5-fold increase) in data set [2] is 0.1 to 0.3 µM.
The molecule `Cc1nc2ccc(-c3cc(=O)n4cc(N5CCNC(C)(C)C5)ccc4n3)cc2s1` [Compound 283, 7-(3,3-dimethylpiperazin-1-yl)-2-(2-methyl-1,3-benzothiazol-6-yl)-4H-pyrido[1,2-a]pyrimidin-4-one] displayed a melting point of 200 to 202 °C. Besides, in data set [1], the “EC1.5x for Smn protein expression” value is given as “**** (an EC1.5x≤0.3 μM is indicated by four stars (****))”; the “maximum fold (Fold) increase” value is “**** (a fold increase between >1.5 and ≤1.65 is indicated by four stars (****))”. The EC (1.5-fold increase) in data set [2] is < 0.1 µM.
Consider `Cc1nc2ccc(-c3cc(=O)n4cc(N5CCCNCC5)ccc4n3)cc2o1` [Compound 195, 7-(1,4-diazepan-1-yl)-2-(2-methyl-1,3-benzoxazol-6-yl)-4H-pyrido[1,2-a]pyrimidin-4-one], for which the melting point was 134 to 137 °C. In addition, in data set [1], the “EC1.5x for Smn protein expression” value was “*** (an EC1.5× between >0.3 μM and ≤1 μM is indicated by three stars (***))”; the “maximum fold (Fold) increase” value is “**** (a fold increase between >1.5 and ≤1.65 is indicated by four stars (****))”. Moreover, in data set [2], the EC (1.5-fold increase) is < 0.1 µM.
`Cc1cn2nc(-c3cc(=O)n4cc(C5=CCN(C(C)C)CC5)ccc4n3)cc2c(C)n1` [Compound 355, 2-(4,6-dimethylpyrazolo[1,5-a]pyrazin-2-yl)-7-[1-(propan-2-yl)-1,2,3,6-tetrahydropyridin-4-yl]-4H-pyrido[1,2-a]pyrimidin-4-one] came in with a melting point of 186 to 189 °C. Further, in data set [1], the “EC1.5x for Smn protein expression” value is “*** (an EC1.5× between >0.3 μM and ≤1 μM is indicated by three stars (***))”; the “maximum fold (Fold) increase” value was “**** (a fold increase between >1.5 and ≤1.65 is indicated by four stars (****))”. The EC (1.5-fold increase) in data set [2] was < 0.1 µM.
Molecule `Cc1cc(-c2cc(=O)n3cc(N4CCN[C@@H](C)C4)ccc3n2)cc2cnn(C)c12` [Compound 777, 2-(1,7-dimethyl-1H-indazol-5-yl)-7-[(3S)-3-methylpiperazin-1-yl]-4H-pyrido[1,2-a]pyrimidin-4-one] had a melting point of 248 to 250 °C. For the same molecule, in data set [1], the “EC1.5x for Smn protein expression” value was “** (an EC1.5× between >1 μM and ≤3 μM is indicated by two stars (**))”; the “maximum fold (Fold) increase” value is “*** (a fold increase between >1.35 and ≤1.5 is indicated by three stars (***))”. Further, in data set [2], the EC (1.5-fold increase) lay within 1 to 3 µM.
The molecule `Cc1cn2nc(-c3cc(=O)n4cc(C5CCN(C6CC6)CC5)ccc4n3)cc2c(C)n1` [Compound 641, 7-(1-cyclopropylpiperidin-4-yl)-2-(4,6-dimethylpyrazolo[1,5-a]pyrazin-2-yl)-4H-pyrido[1,2-a]pyrimidin-4-one] gave a melting point of 180 to 183 °C. In addition, in data set [1], the “EC1.5x for Smn protein expression” value is listed as “**** (an EC1.5x≤0.3 μM is indicated by four stars (****))” and the “maximum fold (Fold) increase” value was “***** (a fold increase >1.65 is indicated by five stars (*****))”. The EC (1.5-fold increase) in data set [2] was < 0.1 µM.
On to `COc1ccc(-c2cc(=O)n3cc(N4CCNC(C)(C)C4)ccc3n2)cc1OC` [Compound 7, 2-(3,4-dimethoxyphenyl)-7-(3,3-dimethylpiperazin-1-yl)-4H-pyrido[1,2-a]pyrimidin-4-one], for which the melting point is 138 to 140 °C. Besides, the “maximum fold (Fold) increase” value in data set [1] is “*** (a fold increase between >1.35 and ≤1.5 is indicated by three stars (***))”. Further, in data set [2], the EC (1.5-fold increase) was in the range of 0.3 to 1 µM.
For the molecule `Cc1cn2nc(-c3cc(=O)n4cc(C5CCN(C(C)C)CC5)ccc4n3)cc2c(C)n1` [Compound 640, 2-(4,6-dimethylpyrazolo[1,5-a]pyrazin-2-yl)-7-[1-(propan-2-yl)piperidin-4-yl]-4H-pyrido[1,2-a]pyrimidin-4-one], the melting point was in the range of 196 to 198 °C. In addition, in data set [1], the “EC1.5x for Smn protein expression” value is given as “**** (an EC1.5x≤0.3 μM is indicated by four stars (****))”; the “maximum fold (Fold) increase” value is “**** (a fold increase between >1.5 and ≤1.65 is indicated by four stars (****))”. For the same molecule, in data set [2], the EC (1.5-fold increase) is < 0.1 µM.
The molecule `O=c1cc(-c2ccc(OCC(F)(F)F)c(F)c2)nc2ccc(N3CCNCC3)cn12` [Compound 154, 2-[3-fluoro-4-(2,2,2-trifluoroethoxy)phenyl]-7-(piperazin-1-yl)-4H-pyrido[1,2-a]pyrimidin-4-one] showed a melting point of 198 to 201 °C. Also, in data set [1], the “maximum fold (Fold) increase” value is on record as “* (A maximum fold increase of ≤1.2 is indicated by one star (*))”. The EC (1.5-fold increase) in data set [2] fell in the range of 1 to 3 µM.
With `CCCN1CCC(c2ccc3nc(-c4ccc5nc(C)cn5c4)cc(=O)n3c2)CC1` [Compound 470, 2-(2-methylimidazo[1,2-a]pyridin-6-yl)-7-(1-propylpiperidin-4-yl)-4H-pyrido[1,2-a]pyrimidin-4-one], the melting point lay within 159 to 161 °C. In data set [1], the “EC1.5x for Smn protein expression” value is “**** (an EC1.5x≤0.3 μM is indicated by four stars (****))”; the “maximum fold (Fold) increase” value was “**** (a fold increase between >1.5 and ≤1.65 is indicated by four stars (****))”. The EC (1.5-fold increase) in data set [2] was < 0.1 µM.
